From ChEMBL document CHEMBL1201862, “PubChem BioAssay data set” (2004)
Each block holds one compound with its values, some of them ahead of it. Active and inactive are the calls of the source.

Tests used:
[1] = HEK-293T cell viability reduction – luminescence, B-cell screen hits, cytotoxicity control for BCR NF-kB inhibitor project, dose response (AID 489021); type: functional, cell-based;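 further: HEK-293T cells carrying an NF-kB luciferase reporter; cells exposed to compound for about 14 hours before viability readout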
[2] = molecular target: T1, Mannose-6-phosphate isomerase (Homo sapiens, UniProt P34949); test: MPI inhibition at elevated mannose 6-phosphate – biochemical, fluorescence intensity, high mannose 6-phosphate, primary screen (AID 1220)
T1 sequence (P34949 whole entry): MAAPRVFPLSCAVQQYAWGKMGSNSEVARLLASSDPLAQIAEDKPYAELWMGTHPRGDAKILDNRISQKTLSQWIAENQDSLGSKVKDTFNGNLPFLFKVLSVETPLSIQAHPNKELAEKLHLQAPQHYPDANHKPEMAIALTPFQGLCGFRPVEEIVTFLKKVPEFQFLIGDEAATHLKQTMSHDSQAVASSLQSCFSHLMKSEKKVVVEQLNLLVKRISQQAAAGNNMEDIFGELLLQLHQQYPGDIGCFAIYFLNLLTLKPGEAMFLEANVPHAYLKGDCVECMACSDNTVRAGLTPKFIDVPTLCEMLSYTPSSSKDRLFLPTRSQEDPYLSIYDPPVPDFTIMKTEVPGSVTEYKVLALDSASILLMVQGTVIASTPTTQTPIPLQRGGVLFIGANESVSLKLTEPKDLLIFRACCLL

[3] = system: BJ; test: BJ-TERT fibroblast viability loss – cell-based, RAS-independent, luminescence, dose response (AID 1933); type: functional; details: Homo sapiens
[4] = system: BJ; test: cells; type: functional, cell-based; details: Homo sapiens
[5] = Trypanosoma cruzi growth suppression in host cells – NIH3T3 host cells, beta-gal luminescence, confirmation (AID 2044); type: functional, cell-based;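 further: intracellular parasites grown in NIH/3T3 mouse fibroblasts as host cells; luminescent beta-galactosidase reporter signal from transgenic T. cruzi replicating inside host cells; inhibitors lower the luminescence signal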
[6] = Luminescence-based dose response cell-based high throughput screening assay for cytotoxic compounds using the IEC-6 intestinal epithelial cell line. [Related pubchem assays: 1858 (Summary AID.), 1825 (Counterscreen.), 1907 (Confirmation screen.)]; type: functional
[7] = NIH3T3 cell viability loss – ATP luminescence, mouse fibroblasts, counter-screen, dose response (AID 2010); type: functional, cell-based;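 further: cells exposed to compound for about 90 hours before reading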
[8] = system: BJ; test: BJ-TERT-LT-ST fibroblast viability loss – cell-based, RAS-independent, luminescence, dose response (AID 1935); type: functional; details: Homo sapiens;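 further: BJ fibroblasts immortalized with TERT plus LT and ST oncogenes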
[9] = DRD fibroblast viability loss – cell-based, non-viral oncogenic, luminescence, dose response (AID 1934); type: functional; details: Homo sapiens
[10] = HEK-293T viability loss after treatment – luminescence, T-cell screen hits, cytotoxicity control for TCR NF-kB inhibitor project, dose response (AID 489026); type: functional, cell-based;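 further: cells exposed to compound about 14 hours before the viability readout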
[11] = cells
[12] = molecular target: T2, Hexokinase HKDC1 (Homo sapiens, UniProt Q2TB90); test: inhibition of HKDC1 glucose phosphorylation – biochemical, W721R variant, dose response (AID 504729); type: functional
T2 sequence (Q2TB90 whole entry): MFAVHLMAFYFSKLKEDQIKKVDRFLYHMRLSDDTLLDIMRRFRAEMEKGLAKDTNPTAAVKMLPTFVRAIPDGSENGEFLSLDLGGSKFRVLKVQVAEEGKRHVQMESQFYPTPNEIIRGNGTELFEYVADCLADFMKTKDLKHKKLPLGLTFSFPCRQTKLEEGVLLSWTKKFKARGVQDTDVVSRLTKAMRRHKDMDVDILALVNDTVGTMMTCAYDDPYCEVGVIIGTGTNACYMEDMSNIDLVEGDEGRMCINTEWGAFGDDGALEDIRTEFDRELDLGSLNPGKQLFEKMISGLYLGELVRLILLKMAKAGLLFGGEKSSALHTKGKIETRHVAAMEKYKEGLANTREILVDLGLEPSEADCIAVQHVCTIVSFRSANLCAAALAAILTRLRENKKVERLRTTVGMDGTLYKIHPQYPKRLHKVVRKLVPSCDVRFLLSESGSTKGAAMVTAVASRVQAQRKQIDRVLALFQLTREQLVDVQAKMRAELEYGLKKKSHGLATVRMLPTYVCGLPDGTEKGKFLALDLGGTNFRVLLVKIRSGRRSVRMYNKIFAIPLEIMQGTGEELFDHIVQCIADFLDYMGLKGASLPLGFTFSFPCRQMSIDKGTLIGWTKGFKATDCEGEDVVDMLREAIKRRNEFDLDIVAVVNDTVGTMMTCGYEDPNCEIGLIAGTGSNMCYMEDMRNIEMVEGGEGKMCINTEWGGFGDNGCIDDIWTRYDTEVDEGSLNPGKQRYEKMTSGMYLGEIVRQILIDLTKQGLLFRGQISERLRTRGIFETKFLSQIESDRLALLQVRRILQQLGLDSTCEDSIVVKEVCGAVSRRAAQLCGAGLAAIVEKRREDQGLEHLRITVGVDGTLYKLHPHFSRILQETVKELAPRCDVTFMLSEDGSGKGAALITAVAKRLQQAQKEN

[13] = reduced cellular PGC1a acetyl-lysine signal – cell-based, cherry-picked samples, dose response (AID 720514); type: functional;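 further: potency may reflect raised or lowered acetylation signal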
[14] = molecular target: T3, Short transient receptor potential channel 4 (Mus musculus, UniProt Q9QUQ5); test: block of DAMGO-driven TRPC4 calcium entry – cell-based, HEK293 TRPC4/mu-opioid, Fluo-4 calcium, dose response (AID 434942); type: functional;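 further: potency of inhibitors blocking the TRPC4 calcium response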
T3 sequence (Q9QUQ5 whole entry): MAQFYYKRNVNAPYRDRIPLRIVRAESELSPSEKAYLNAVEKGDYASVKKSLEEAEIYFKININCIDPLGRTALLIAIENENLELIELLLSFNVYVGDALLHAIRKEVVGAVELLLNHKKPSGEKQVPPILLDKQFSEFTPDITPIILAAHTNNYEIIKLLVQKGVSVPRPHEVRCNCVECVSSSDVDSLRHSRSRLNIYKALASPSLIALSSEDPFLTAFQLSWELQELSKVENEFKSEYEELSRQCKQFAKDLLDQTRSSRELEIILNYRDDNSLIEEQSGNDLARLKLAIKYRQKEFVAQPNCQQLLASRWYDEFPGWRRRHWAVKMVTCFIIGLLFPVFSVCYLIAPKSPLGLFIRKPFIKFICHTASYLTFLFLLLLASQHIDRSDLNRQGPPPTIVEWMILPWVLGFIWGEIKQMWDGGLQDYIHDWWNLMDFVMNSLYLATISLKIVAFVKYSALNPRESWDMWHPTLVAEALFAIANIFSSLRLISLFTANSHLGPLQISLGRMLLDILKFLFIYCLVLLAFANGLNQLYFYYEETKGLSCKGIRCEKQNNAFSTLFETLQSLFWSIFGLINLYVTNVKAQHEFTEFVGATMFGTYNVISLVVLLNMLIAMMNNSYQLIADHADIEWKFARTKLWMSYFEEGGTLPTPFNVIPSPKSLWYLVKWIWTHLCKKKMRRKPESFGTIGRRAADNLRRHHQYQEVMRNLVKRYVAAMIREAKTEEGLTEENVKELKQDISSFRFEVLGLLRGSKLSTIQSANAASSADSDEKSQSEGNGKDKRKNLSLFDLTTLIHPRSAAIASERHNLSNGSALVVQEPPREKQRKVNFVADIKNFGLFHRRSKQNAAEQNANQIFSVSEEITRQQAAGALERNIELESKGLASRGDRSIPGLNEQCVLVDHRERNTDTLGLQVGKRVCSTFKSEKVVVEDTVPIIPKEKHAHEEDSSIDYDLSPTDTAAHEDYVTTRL

[15] = molecular target: T3, Short transient receptor potential channel 4; test: calcium entry via TRPC4 opening agents – cell-based, HEK293 TRPC4/mu-opioid, Fluo-4 calcium, dose response (AID 434937); type: functional
[16] = rise of 2N DNA cells, HeLa – IC50, dose response (AID 1117349); type: functional, cell-based
[17] = rise of 4N DNA cells, HeLa – IC50, dose response (AID 1117351); type: functional, cell-based

SMILES: O=C(NNC(=O)C12CC3CC(CC(C3)C1)C2)c1cccc(O)c1
IC50 [1]: > 80 µM (inactive)

IC50 [2]: > 50 µM (not active)
SMILES: Cc1cccc(NCc2ccc(O)c3ncccc23)c1

SMILES: COc1ccc(C(=O)Nc2nnc(SCC(=O)Nc3ccc(NC(C)=O)cc3)s2)c(OC)c1
IC50 [1]: > 80 µM (inactive)

SMILES: CC(=O)O[C@@]12CO[C@@H]1C[C@@H](O)[C@@]1(C)C(=O)[C@H](O)C3=C(C)[C@@H](OC(=O)[C@H](O)[C@@H](NC(=O)c4ccccc4)c4ccccc4)C[C@@](O)([C@@H](OC(=O)c4ccccc4)C12)C3(C)C (stereo partly specified)
EC50 [3]: 0.645 µM (active)
EC50 [4]: 44.8 µM (inconclusive)
EC50 [5]: < 0.1 µM (active)
IC50 [6]: 0.157 µM (active)
EC50 [7]: 5.97 µM (active)
EC50 [8]: 0.434 µM (inconclusive)
EC50 [9]: 0.567 µM (active)
IC50 [10]: > 80 µM (inactive)
EC50 [11]: 0.022 µM (active)

IC50 [12]: 2.56 µM (active)
SMILES: COC1=CC(=O)C(OC)=C(OC)C1=O

SMILES: N#Cc1cccc(-c2ccc([C@@H]3[C@@H]4CN(Cc5ccccc5F)C[C@H]3N4)cc2)c1
AC50 [13]: 8.09 µM (active)

SMILES: Cc1ccccc1Nc1nc(NCc2ccco2)c2ccccc2n1
EC50 [5]: < 0.1 µM (active)
EC50 [7]: > 60 µM (not active)
EC50 [14]: 1.06 µM (active)
EC50 [15]: 5.96 µM (active)
EC50 [11]: 0.023 µM (active)

SMILES: CCCCCCCCCCCCCCCCNc1ccc(C(=O)O)cc1 [CETABEN]
IC50 [16]: > 10 µM (inactive)
IC50 [17]: > 10 µM (inactive)
